The text below walks through data of US20060281807A1, “Quassinoid compositions for the treatment of cancer and other proliferative diseases” (Tapestry Pharmaceuticals, Inc., priority 2005, published 2006).

≈ marks a conversion by molar mass, not a printed value. Where “and” joins values, the source holds several entries; their conditions need not be identical. Identical values can stand only once. Like-named read-outs stand apart in the source and are kept apart here. Some results are limits rather than exact numbers.

Assay [1] deals with HCT-116 cells. The experiment in a line: HCT-116 cytotoxicity, viable cell count by trypan blue. It counts as cell-based, human. Particulars: for IC90/IC50: HCT-116; for IC50 / IC90: Homo sapiens.
Assay [2] concerns HCT-116 cells. The experiment in a line: Clonogenic assay, HCT-116. Particulars: colonies at 7 days. Type of assay: cell-based, human. The method, then:
A clonogenic assay was performed using HCT-116 cells. Specifically, HCT-116 cells were seeded at 200 to 20,000 cells in 60 mm dishes. […] At either 2 hours or 24 hours following drug administration, the drug-containing media was removed, and fresh media without drug was added. In addition, one group of cells was subjected to continuous drug exposure for the entire incubation period. The dishes were incubated for 7 days (at 37° C. and 5% CO2), media was removed, and the colonies were stained with methylene blue. Colonies containing 50 cells or more were counted. The results were normalized to an untreated control. Plating efficiency for the untreated cells was about 90%. Repeat experiments also were carried out to define the cell survival range between 1 (100%) and 10^−3 (0.1%) survival. A survival rate of 10^−1 was chosen as the minimal level that would be required in vivo to achieve therapeutic efficacy against HCT-116 cells in tumor-bearing mice. The clonogenic dose response to 15-O-(3′-hydroxy-3′-isopropyl-4′-methylpentanoyl)bruceolide is illustrated in FIG. 4. The clonogenic dose response to 15-(3-isopropyl-4-methyl-2-pentenoyl)-bruceolide is illustrated in FIG. 5.

The next assay has as its system human CFU-GM. It counts as cell-based. Particulars: 1 mg/mL. The method, then:
(§1) A disk diffusion assay was performed to define the differential cell killing ability of 15-O-(3′-hydroxy-3′-isopropyl-4′-methylpentanoyl)bruceolide. Seven cell types were assayed: L1210 (ATCC CCL-219) (murine leukemia), CCRF-CEM (ATCC CCL-119) (human leukemia), Colon 38 (murine colon adenocarcinoma), HCT116 (ATCC CCL-247) (human colorectal carcinoma), H125 (human lung carcinoma). The murine and human granulocyte/macrophage progenitor cell line (CFU-GM), served as controls.
(§2) For CFU-GM cells, the femoral marrow of BD2F1 mice was flushed with MEM alpha (2 mL per femur). The cells were passed through an 18 gauge needle twice and the monodispersed suspension was counted. A total of 1.5×10^6 cells were plated in 3 mL of 0.3% agar with the addition of 10% L cell conditioned media, which provided colony stimulating factor, in MEM-alpha plus 10% BCS. For human CFU-GM, the cells were obtained from Poietic Technologies, Inc. (Gaithersburg, Md.) and washed twice with PBS before being titered and added to the agar mixture. The same cell number, culture conditions, and conditioning factors used with respect to the murine CFU-GM cells were used with the human cells, except that the cultures were assessed after 10 days of incubation.
(§3) A 15 μl sample of each compound was dropped onto a 6.5 mm disk (Baxter filter disks). The disks were allowed to dry overnight and then placed close to the edge of a petri dish. Depending upon the cell type, the dishes were incubated for 7 to 10 days, and examined by an inverted stereo-microscope (10×) for measurement of the zone of inhibition. The zone of inhibition was measured from the edge of the filter disk to the beginning of normal-sized colony formation. The diameter of the filter disk, 6.5 mm, was arbitrarily taken as a zone of 200 units. Compounds that were selective for killing solid tumors, as compared to leukemia or normal cells (“solid tumor selective”) were defined as those compounds which produced a difference in zones between solid tumor cells and either normal or leukemia cells of at least 250 units. The results of this analysis are set forth in Table 4, which illustrates the relative diameters of the zones of inhibition by various drugs on the growth of the respective cell types at various drug dilutions.

For the next assay, the system named is murine CFU-GM. The experiment in a line: Disk diffusion assay, zone of inhibition, murine CFU-GM. Type of assay: cell-based. The following applies: 1 mg/mL. As for the experimental part: as §1, §2, §3
The test system of assay [3] is Colon 38 (murine colon adenocarcinoma). As to the kind of experiment: Disk diffusion assay, zone of inhibition, Colon 38; zone differentials, potency and product. Type of assay: cell-based. On the set-up: key to C38ΔL1210 / C38ΔCFU: difference of zone of inhibition values, in zone units. Particulars: for zone of inhibition, Colon 38: 1 mg/mL; for Sum: C38ΔL1210 plus C38ΔCFU; for C38ΔL1210: Colon38 vs L1210 leukemia. In outline:
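Dissociated Colon 38 cells were plated in soft agar over a hard agar layer; 15 µl of compound dilution dried on a 6.5 mm disk was placed on the plate, and incubation ran 7–10 days. Inhibition zone was measured from disk edge to normal colonies, with the disk diameter = 200 units. Potency = dilution giving 500 units; the product multiplies it by the differentials against L1210 or CFU-GM.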

A further assay concerns HuTu-80. The experiment in a line: MTT cytotoxicity assay (% kill), HuTu-80. Type of assay: cell-based, human. Particulars: 1 h exposure. As for the experimental part: The following human tumor cell lines were obtained and cultured in sextuplicate microwells at 37° C. and 5% CO2 in humidified air and in 10% FBS in Eagles MEM: SK—N—FI, SK—N-AS, LS-174T, WiDr, HuTu-80, MCF7, NCI-AR, MES-Sar, and PL-45. Cells from each cell line were separately treated with an amount of one of the compounds of Formula I, II, or III (see Table 1). Cells were exposed to each compound (0.1 μg/mL or 1.0 μg/mL) for one hour or 24 hours, rinsed with drug-free media, and incubated for an additional five days. The number of viable cells after five days was measured using an MTT (3-(4,5-dimethylthiazol-2-yl)-2,5-diphenyltetrazolium bromide) assay (see, e.g., Mosmann, J. Immunol. Methods, 65(1-2), 55-63 (1983)).
The cytotoxicity of each drug was determined and expressed as the percent of cells killed (“% kill”).

Assay [4] concerns CCRF-CEM (human leukemia). As to the kind of experiment: Disk diffusion assay, zone of inhibition, CCRF-CEM. It counts as cell-based. The following applies: 1 mg/mL. As for the experimental part:
as §1
Colon 38 cells (about 1 gram) were cut into small fragments in 15 mL of Hank's Balanced Salt Solution (HBSS) over a 100-mesh sieve and gently forced through by the scissors with HBSS constantly perfusing the sieve. The resulting material was then drawn into and out of a 5 mL syringe without a needle to further disperse the cell clumps. The cell solution was diluted and plated in 0.3% agarose in DMEM plus 10% heat-inactivated Bovine Calf Serum (BCS). For plating of all of the cell types (except controls), the 60 mm plates were first prepared with a hard agar bottom layer (0.6% agar in RPMI-1640 plus 15% BCS).
as §3

The mark [5] stands for this setting: no dilution, 15 μl on disk, 6.5 mm = 200 units.
Where [6] appears, read: difference between zone of inhibition values.

In the case of `COC(=O)[C@@]12OC[C@@]34C1[C@@H](OC(=O)CC(O)(C(C)C)C(C)C)C(=O)O[C@@H]3C[C@H]1C(C)=C(O)C(=O)C[C@]1(C)[C@H]4[C@@H](O)[C@@H]2O` (some centres unmarked) [15-O-(3′-hydroxy-3′-isopropyl-4′-methylpentanoyl)bruceolide], the IC90/IC50 with HCT-116 cells [1] came to 35. Besides, the IC50 in the assay with HCT-116 cells [1] (72 h, HCT-116, 3 days with compound, viable cells, by interpolation, read-out: IC50) stood at 1.9 ng/mL (≈ 0.0032 µM). The 90% effect concentration (IC90) in the assay with HCT-116 cells [1] (72 h, HCT-116, 3 days with compound, viable cells, by interpolation, read-out: IC90) worked out at 67 ng/mL (≈ 0.113 µM). For the same molecule, the “Concentration Required for 10^−1 Survival Fraction” value was greater than 10 μg/mL with HCT-116 cells [2] (HCT-116, 2 Hour Exposure); 1 × 10^0 μg/mL with HCT-116 cells [2] (HCT-116, 24 Hour Exposure); 7 × 10^−3 μg/mL with HCT-116 cells [2] (HCT-116, Continuous Exposure). The “zone of inhibition, human CFU-GM” value in the assay on human CFU-GM (dilution 1/10) is on record as 900 units; in the assay on human CFU-GM (dilution 1/100), 600 units. For the same molecule, the “zone of inhibition, murine CFU-GM” value was 50 units in the assay on murine CFU-GM (dilution 1/10); 300 units and 200 units in the assay on murine CFU-GM (dilution 1/100); 100 units with murine CFU-GM (dilution 1/400); 0 units with murine CFU-GM (dilution 1/1000). For the same molecule, the “zone of inhibition, Colon 38” value in assay [3] (dilution 1/10) was greater than 1000 units; in assay [3] (dilution 1/100), 750 units and 600 units and 500 units; in assay [3] (dilution 1/400), 300 units; in assay [3] (dilution 1/1000), 400 units and 250 units; in assay [3] (setting [5]) it was greater than 1000 units. Also, in assay [3], the Sum is 750 and 1450. Also, the C38ΔL1210 in assay [3] (setting [6]) was 400 and 550. For the same molecule, the “% kill, HuTu-80” value in the assay on HuTu-80 (0.1 μg/mL) was 0%; in the assay with HuTu-80 (1.0 μg/mL), 7%. The “zone of inhibition, CEM” value is 650 units and 700 units in assay [4] (dilution 1/10); 100 units and 150 units in assay [4] (dilution 1/100).

`COC(=O)[C@@]12OC[C@@]34C1[C@@H](OC(=O)C=C(C(C)C)C(C)C)C(=O)O[C@@H]3C[C@H]1C(C)=C(O)C(=O)C[C@]1(C)[C@H]4[C@@H](O)[C@@H]2O` (some centres unmarked) [15-O-(3′-isopropyl-4′-methyl-2′-pentenoyl)-bruceolide] had an IC90/IC50 with HCT-116 cells [1] of 7. In the assay with HCT-116 cells [1] (HCT-116, 72 h), this molecule yielded an IC50 of 1.5 ng/mL (≈ 0.0026 µM). The same molecule registered an IC90 in the assay on HCT-116 cells [1] (HCT-116, 72 h) of 10 ng/mL (≈ 0.0173 µM). In addition, the “Concentration Required for 10^−1 Survival Fraction” value is recorded as greater than 10 μg/mL with HCT-116 cells [2] (HCT-116, 2 Hour Exposure); 1.5 × 10^0 μg/mL with HCT-116 cells [2] (HCT-116, 24 Hour Exposure); 1.5 × 10^−3 μg/mL in the assay with HCT-116 cells [2] (HCT-116, Continuous Exposure). For the same molecule, the “zone of inhibition, human CFU-GM” value in the assay with human CFU-GM (dilution 1/10) is given as greater than 1000 units; in the assay with human CFU-GM (dilution 1/100) it was 550 units. The “zone of inhibition, murine CFU-GM” value is 650 units with murine CFU-GM (dilution 1/10); 350 units and 600 units with murine CFU-GM (dilution 1/100); 0 units with murine CFU-GM (dilution 1/1000). The “zone of inhibition, Colon 38” value in assay [3] (dilution 1/10) was greater than 1000 units; in assay [3] (dilution 1/100) it was 850 units and 650 units; in assay [3] (dilution 1/1000) it was 450 units; in assay [3] (setting [5]), greater than 1000 units. Besides, the Sum in assay [3] came out at 750. In addition, the C38ΔL1210 in assay [3] (setting [6]) turned out to be 300. In addition, the C38ΔCFU in assay [3] (difference between zone of inhibition values, Colon38 vs normal cell CFU-GM) came to 450. Moreover, in assay [3] (potency multiplied by zone differentials), the Product was 4500. For the same molecule, the “zone of inhibition, CEM” value in assay [4] (dilution 1/10) amounted to 800 units; in assay [4] (dilution 1/100), 400 units.
